The values that follow come from patent US20240092758A1, “IMIDAZOLO INDAZOLE COMPOUNDS AS JAK INHIBITORS” (Theravance Biopharma R&D IP, LLC, priority 2021, published 2024).

Each structure is given as a SMILES string.

The target in one data set is JAK2 (Homo sapiens (Human), UniProt O60674). Kind of data set: Biochemical JAK kinase assay (LanthaScreen), JAK2. The following applies: for Ki: read-out: JAK2 pKi (converted). Summed up: (§1)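 LanthaScreen format: phospho-STAT1 (pTyr701) detected with 2 nM Tb antibody after 10 mM EDTA quench. Kinase step used Km-level ATP and 200 nM STAT1 peptide, 1 h at ambient after 1 h pre-incubation. Inhibition fitted to IC50, reported as pKi.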
Chain of JAK2 (O60674 whole entry): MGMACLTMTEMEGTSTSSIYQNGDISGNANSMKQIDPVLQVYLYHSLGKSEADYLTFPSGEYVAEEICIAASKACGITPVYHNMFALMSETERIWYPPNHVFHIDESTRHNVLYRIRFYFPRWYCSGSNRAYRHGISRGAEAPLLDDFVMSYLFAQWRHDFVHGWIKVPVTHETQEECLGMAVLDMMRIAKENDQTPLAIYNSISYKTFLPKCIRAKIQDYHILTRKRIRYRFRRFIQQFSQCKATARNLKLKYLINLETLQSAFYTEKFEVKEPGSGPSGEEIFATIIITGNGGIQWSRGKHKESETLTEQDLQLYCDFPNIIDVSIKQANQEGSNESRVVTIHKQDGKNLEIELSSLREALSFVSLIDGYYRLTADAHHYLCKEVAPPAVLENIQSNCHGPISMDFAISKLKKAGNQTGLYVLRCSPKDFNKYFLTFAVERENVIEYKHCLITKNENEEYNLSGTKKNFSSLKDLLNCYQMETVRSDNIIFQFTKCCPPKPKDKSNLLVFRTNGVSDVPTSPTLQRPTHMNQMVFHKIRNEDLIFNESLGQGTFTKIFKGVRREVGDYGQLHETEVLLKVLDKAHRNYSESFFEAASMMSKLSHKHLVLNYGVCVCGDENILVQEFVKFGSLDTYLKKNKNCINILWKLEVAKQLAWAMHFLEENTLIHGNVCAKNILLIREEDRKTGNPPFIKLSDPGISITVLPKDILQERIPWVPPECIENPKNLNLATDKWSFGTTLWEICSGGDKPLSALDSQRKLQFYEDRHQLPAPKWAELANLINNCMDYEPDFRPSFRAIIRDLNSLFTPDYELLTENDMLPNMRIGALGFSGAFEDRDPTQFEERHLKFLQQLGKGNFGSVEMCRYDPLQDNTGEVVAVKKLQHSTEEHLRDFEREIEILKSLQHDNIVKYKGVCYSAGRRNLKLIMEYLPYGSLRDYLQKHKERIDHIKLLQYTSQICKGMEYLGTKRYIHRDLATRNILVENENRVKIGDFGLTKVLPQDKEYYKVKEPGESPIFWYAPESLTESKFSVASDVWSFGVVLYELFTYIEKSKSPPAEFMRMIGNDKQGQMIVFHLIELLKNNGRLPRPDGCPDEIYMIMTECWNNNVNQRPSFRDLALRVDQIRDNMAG
A general note: In TR-FRET formats the signal depends on donor and acceptor labels being close together.

The next data set deals with JAK3 (Homo sapiens (Human), UniProt P52333). Kind of data set: Biochemical JAK kinase assay (LanthaScreen), JAK3. The settings on record: read-out: JAK3 pKi (converted). The method in brief:
as §1

The target of another data set is JAK1 (Homo sapiens (Human), UniProt P23458). Put plainly: Biochemical JAK kinase assay (LanthaScreen), JAK1. The following applies: for Ki: read-out: JAK1 pKi (converted). Summed up:
as §1

Data set [1] is described as follows: Pharmacokinetics in plasma and lung in mouse after oral aspiration administration. In kind it is in vivo. The settings on record: male CD1 mice; for Lung Tissue AUC(0-24) / AUC(0-t): 0.2 mg/mL, two 25 μL increments; for Lung Tissue:Plasma AUC ratio: lung AUC to plasma AUC; for AUC(0-t): mouse, inhaled or intranasal, 0.01 mg/mouse, plasma, read-out: Plasma AUC(0-24). The protocol: Plasma and lung concentrations of test compounds were quantified and pharmacokinetic parameters were calculated in the following manner. Male CD1 mice from Charles River Laboratories were used in the pharmacokinetic studies. Test compounds were individually formulated in 20% propylene glycol in pH 4 citrate buffer at a concentration of 0.2 mg/mL. Test compounds were administered in two, 25 μL increments introduced into the trachea of each mouse by oral aspiration using a calibrated pipette once the animal was anesthetized using isoflurane. Blood samples were collected as terminal collections via cardiac puncture at 0.167, 1, 4, 8, and 24 hr post-dosing. Following […] with CO2, a direct cardiac puncture was performed while avoiding puncturing the lung and blood was immediately transferred into K2EDTA tubes and placed on wet ice. Blood samples were centrifuged (Eppendorf centrifuge, 5804R) for 4 minutes at approximately 12,000 rpm at 4° C. to collect plasma. Intact lungs were also excised from these mice using the same timepoints (0.167, 1, 4, 8, and 24 hr). Lungs were washed with sterile water to remove any blood residue and were patted dry, weighed, and homogenized in 0.1% formic acid in water at a dilution of 1:3 (lung:water, weight/volume). Plasma and lung concentrations of test compounds were determined by LC-MS/MS analysis against analytical standards constructed into a standard curve in the test matrix. The pharmacokinetic parameters of test compounds were determined by non-compartmental analysis. For concentrations below the limit of quantification, zero was used for mean calculations. Mean values were not reported if more than 50% of the samples were below the limit of quantification at a timepoint, or if more than 50% of a calculated pharmacokinetic parameter was not reportable. The area under the concentration-time curve extrapolated to infinity (AUC(0-inf)) was calculated as follows: AUC(0-inf)=AUC(0-t)+Clast/k, where AUC(0-t) is the area under the concentration-time curve from the time of dosing to the last measurable concentration calculated by the linear trapezoidal rule, Clast is the last measurable concentration, and k is the first order rate constant associated with the terminal elimination phase, estimated by linear regression of time versus log concentration. The lung-to-plasma AUC ratio was determined as the ratio of the lung AUC(0-inf) in μg*hr/g to the plasma AUC(0-inf) in μg*hr/mL.

A further data set deals with TYK2 (Homo sapiens (Human), UniProt P29597). Kind of data set: Biochemical JAK kinase assay (LanthaScreen), Tyk2. The settings on record: read-out: Tyk2 pKi (converted). Summed up: as §1
Chain of TYK2 (P29597 whole entry): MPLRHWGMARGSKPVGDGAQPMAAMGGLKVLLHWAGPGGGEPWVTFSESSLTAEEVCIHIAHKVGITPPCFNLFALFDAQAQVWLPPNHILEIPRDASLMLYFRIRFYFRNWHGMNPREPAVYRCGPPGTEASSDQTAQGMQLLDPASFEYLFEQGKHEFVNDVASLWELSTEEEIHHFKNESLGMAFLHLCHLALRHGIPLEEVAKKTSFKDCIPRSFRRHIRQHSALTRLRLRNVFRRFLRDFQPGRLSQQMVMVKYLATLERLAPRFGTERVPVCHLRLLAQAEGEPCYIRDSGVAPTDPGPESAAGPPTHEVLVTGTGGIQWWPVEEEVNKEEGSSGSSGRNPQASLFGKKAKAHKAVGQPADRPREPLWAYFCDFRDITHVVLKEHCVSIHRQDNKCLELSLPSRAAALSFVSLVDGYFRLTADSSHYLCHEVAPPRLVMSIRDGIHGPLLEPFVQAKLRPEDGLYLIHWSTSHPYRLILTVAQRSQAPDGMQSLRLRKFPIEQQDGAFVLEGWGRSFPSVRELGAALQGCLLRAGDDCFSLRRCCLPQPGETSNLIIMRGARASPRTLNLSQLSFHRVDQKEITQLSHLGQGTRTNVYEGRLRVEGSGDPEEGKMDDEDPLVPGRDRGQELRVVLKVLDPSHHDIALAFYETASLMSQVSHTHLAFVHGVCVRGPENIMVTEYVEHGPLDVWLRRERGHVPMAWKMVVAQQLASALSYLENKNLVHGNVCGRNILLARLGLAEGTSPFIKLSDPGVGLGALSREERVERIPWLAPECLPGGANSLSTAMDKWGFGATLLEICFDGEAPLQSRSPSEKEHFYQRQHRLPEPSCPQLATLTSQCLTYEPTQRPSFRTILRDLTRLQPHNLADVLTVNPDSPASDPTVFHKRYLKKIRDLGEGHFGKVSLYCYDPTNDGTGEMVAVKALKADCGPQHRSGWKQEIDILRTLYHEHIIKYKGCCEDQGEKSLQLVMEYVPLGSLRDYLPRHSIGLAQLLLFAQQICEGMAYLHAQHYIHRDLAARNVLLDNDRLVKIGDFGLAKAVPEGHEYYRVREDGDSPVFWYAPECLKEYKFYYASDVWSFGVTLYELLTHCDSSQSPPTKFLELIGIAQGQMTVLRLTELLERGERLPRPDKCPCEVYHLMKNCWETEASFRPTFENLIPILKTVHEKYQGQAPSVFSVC
For data set [2], the system named is IL-13 induced STAT6 phosphorylation in BEAS-2B human lung epithelial cells. Kind of data set: Cellular JAKI potency assay (BEAS-2B). The settings on record: BEAS-2B cells; for IC50: Homo sapiens, BEAS-2B, read-out: BEAS2B pIC50 (converted). Type of data set: cell-based. Summed up:
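AlphaLISA SureFire detection of Tyr641 pSTAT6 in lysates gave IC50s (4-parameter fit, expressed as pIC50). Cells: human BEAS-2B, exposed 1 h at 37 °C to compound dose series at 0.1% DMSO, then 30 min to IL-13 added at 80 ng/mL in HEPES-buffered HBSS with BSA.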

Chain of JAK1 (P23458 whole entry): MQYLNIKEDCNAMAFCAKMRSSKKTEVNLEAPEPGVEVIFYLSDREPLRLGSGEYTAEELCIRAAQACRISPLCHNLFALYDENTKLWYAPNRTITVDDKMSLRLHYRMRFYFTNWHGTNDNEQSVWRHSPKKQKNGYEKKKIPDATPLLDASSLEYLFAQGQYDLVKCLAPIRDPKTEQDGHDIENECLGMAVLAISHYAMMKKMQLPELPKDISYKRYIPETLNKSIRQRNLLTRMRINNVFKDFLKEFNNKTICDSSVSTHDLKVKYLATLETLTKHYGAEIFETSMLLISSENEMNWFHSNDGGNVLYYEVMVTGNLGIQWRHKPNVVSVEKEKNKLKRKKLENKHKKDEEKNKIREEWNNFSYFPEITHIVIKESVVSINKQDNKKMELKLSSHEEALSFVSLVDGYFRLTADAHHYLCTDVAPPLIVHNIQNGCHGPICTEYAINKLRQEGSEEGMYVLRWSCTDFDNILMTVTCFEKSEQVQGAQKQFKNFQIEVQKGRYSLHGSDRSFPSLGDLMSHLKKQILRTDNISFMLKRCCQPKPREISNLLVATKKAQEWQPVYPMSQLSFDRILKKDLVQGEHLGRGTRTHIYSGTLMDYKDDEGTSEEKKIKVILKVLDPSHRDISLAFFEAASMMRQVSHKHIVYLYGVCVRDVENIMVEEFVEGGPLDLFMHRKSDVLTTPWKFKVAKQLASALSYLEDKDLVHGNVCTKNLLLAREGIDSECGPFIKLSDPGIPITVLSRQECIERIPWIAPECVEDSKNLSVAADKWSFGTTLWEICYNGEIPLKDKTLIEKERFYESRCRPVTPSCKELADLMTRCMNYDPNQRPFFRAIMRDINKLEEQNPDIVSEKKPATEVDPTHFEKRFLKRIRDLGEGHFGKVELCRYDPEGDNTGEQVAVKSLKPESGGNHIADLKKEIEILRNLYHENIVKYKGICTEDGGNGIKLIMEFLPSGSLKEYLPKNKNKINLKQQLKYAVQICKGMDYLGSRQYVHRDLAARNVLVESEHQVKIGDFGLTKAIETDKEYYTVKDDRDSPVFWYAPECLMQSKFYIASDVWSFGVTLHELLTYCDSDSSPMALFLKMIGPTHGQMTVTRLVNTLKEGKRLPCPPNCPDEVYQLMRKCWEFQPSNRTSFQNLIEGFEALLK
Chain of JAK3 (P52333 whole entry): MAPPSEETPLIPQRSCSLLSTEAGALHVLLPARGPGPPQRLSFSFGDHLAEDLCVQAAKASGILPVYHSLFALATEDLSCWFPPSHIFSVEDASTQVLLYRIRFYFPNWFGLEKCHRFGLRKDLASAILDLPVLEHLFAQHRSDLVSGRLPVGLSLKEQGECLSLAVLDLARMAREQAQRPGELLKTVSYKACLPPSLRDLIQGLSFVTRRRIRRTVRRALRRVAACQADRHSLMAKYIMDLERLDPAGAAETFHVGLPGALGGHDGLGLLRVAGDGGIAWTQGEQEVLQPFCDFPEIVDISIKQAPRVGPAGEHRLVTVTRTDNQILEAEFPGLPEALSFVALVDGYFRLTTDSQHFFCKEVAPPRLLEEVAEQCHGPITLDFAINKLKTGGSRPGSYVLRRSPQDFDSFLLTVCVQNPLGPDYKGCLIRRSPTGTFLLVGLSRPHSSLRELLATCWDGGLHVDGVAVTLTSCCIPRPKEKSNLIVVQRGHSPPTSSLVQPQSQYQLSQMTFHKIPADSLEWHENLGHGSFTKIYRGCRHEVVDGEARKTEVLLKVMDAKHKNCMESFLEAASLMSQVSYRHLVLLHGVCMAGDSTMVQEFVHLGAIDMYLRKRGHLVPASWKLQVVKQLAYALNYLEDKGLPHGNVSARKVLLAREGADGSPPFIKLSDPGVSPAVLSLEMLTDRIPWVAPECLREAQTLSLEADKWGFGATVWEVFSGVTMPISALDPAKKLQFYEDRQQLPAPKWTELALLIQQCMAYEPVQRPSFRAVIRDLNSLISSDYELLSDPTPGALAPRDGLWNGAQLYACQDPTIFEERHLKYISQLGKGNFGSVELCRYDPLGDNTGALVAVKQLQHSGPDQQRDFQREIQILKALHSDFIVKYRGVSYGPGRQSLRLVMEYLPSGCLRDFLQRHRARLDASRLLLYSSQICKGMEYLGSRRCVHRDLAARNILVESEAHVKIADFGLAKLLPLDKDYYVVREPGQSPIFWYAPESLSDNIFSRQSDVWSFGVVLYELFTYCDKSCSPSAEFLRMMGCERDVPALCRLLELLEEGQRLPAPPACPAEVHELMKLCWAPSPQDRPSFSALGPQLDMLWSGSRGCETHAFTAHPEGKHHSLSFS

`CCc1cc(O)ccc1-c1ccc2c(-c3nc(C4=CCCNC4)c[nH]3)n[nH]c2c1` [Compound 4, 3-ethyl-4-(3-(4-(1,2,5,6-tetrahydropyridin-3-yl)-1H-imidazol-2-yl)-1H-indazol-6-yl)phenol]: the Ki was 0.1 to 1 nM at JAK2, 0.1 to 1 nM at JAK3, 0.1 to 1 nM on JAK1 and 1 to 10 nM at TYK2. Also, in data set [1], the “Lung Tissue AUC(0-24)” value is “B (B denotes a value between 50 and 100)”. Also, the “Lung Tissue:Plasma AUC ratio” value in data set [1] is “C (C denotes a ratio between 100 and 200)”. For the same molecule, the AUC(0-t) in data set [1] lay within 500 to 1000 ng·h/mL. The IC50 in data set [2] was 3.16 to 10 nM.

Consider `CCc1cc(O)ccc1-c1ccc2c(-c3nc(C4=CCNC4)c[nH]3)n[nH]c2c1` [Compound 5, 4-(3-(4-(2,5-dihydro-1H-pyrrol-3-yl)-1H-imidazol-2-yl)-1H-indazol-6-yl)-3-ethylphenol], for which, at JAK2, the Ki is 0.1 to 1 nM. Besides, the Ki at JAK3 is 0.1 to 1 nM. The “JAK1 pKi” value on JAK1 is listed as “A (A represents a pKi value ≥10 (Ki≤0.1 nM))”. For the same molecule, in data set [1], the “Lung Tissue AUC(0-24)” value was “C (C denotes a value between 9 and 50)”; the “Lung Tissue:Plasma AUC ratio” value was “D (D denotes a ratio between 50 and 100)”; the AUC(0-t) was under 500 ng·h/mL. In addition, the Ki at TYK2 was 0.1 to 1 nM. Moreover, in data set [2], the IC50 is 3.16 to 10 nM.

Regarding `CCc1cc(O)ccc1-c1ccc2c(-c3nc(C4=CCCNC4)c[nH]3)n[nH]c2c1F` [Compound 6, 3-ethyl-4-(7-fluoro-3-(4-(1,2,5,6-tetrahydropyridin-3-yl)-1H-imidazol-2-yl)-1H-indazol-6-yl)phenol], the Ki at JAK2 was 0.1 to 1 nM; at JAK3 it was 1 to 10 nM; on JAK1, 0.1 to 1 nM; on TYK2, 1 to 10 nM. Besides, the “Lung Tissue AUC(0-24)” value in data set [1] is “B (B denotes a value between 50 and 100)”. For the same molecule, in data set [1], the “Lung Tissue:Plasma AUC ratio” value was “D (D denotes a ratio between 50 and 100)”. In data set [1], the AUC(0-t) fell in the range of 500 to 1000 ng·h/mL. Moreover, the IC50 in data set [2] is 3.16 to 10 nM.

For `CCc1cc(O)ccc1-c1ccc2c(-c3nc(C4=CC5COCC(C4)N5)c[nH]3)n[nH]c2c1` (centres unmarked) [Compound 7, 4-(3-(4-(3-oxa-9-azabicyclo[3.3.1]non-6-en-7-yl)-1H-imidazol-2-yl)-1H-indazol-6-yl)-3-ethylphenol], at JAK2, the “JAK2 pKi” value is recorded as “A (A represents a pKi value ≥10 (Ki≤0.1 nM))”. Moreover, the Ki on JAK3 was 0.1 to 1 nM; at JAK1, 0.1 to 1 nM; on TYK2 it was 1 to 10 nM. Further, in data set [1], the “Lung Tissue AUC(0-24)” value was “B (B denotes a value between 50 and 100)”. Moreover, the “Lung Tissue:Plasma AUC ratio” value in data set [1] was “C (C denotes a ratio between 100 and 200)”. Moreover, the AUC(0-t) in data set [1] was under 500 ng·h/mL. For the same molecule, in data set [2], the IC50 was 10 to 31.6 nM.

Consider `CCc1cc(O)ccc1-c1ccc2c(-c3nc(C4=CCN(CCCO)CC4)c[nH]3)n[nH]c2c1F` [Compound 14, 3-ethyl-4-(7-fluoro-3-(4-(1-(3-hydroxypropyl)-1,2,3,6-tetrahydropyridin-4-yl)-1H-imidazol-2-yl)-1H-indazol-6-yl)phenol], for which, at JAK3, the Ki was 0.1 to 1 nM. In addition, the Ki on JAK1 is 0.1 to 1 nM. In data set [1], the “Lung Tissue AUC(0-24)” value was “C (C denotes a value between 9 and 50)”; the “Lung Tissue:Plasma AUC ratio” value was “C (C denotes a ratio between 100 and 200)”; the AUC(0-t) is under 500 ng·h/mL. For the same molecule, the Ki on TYK2 is 1 to 10 nM. The IC50 in data set [2] is 10 to 31.6 nM.

Take `CCc1cc(O)ccc1-c1ccc2c(-c3nc(C4=CC[C@H](C)NC4)c[nH]3)n[nH]c2c1` [Example 230]: at JAK2, the “JAK2 pKi” value is reported as “A (A represents a pKi value ≥10 (Ki≤0.1 nM))”. In addition, the values for the Ki at JAK3 and at TYK2 were 0.1 to 1 nM and 1 to 10 nM, respectively. Also, at JAK1, the “JAK1 pKi” value is reported as “A (A represents a pKi value ≥10 (Ki≤0.1 nM))”. In data set [2], the IC50 was 3.16 to 10 nM.

As to `CCc1cc(O)ccc1-c1ccc2c(-c3nc(C4=CC[C@@H](C)NC4)c[nH]3)n[nH]c2c1` [Example 231], the “JAK2 pKi” value on JAK2 was “A (A represents a pKi value ≥10 (Ki≤0.1 nM))”. Besides, the figures for the Ki at JAK3, on JAK1 and on TYK2 were 0.1 to 1 nM, 0.1 to 1 nM and 1 to 10 nM, respectively. In addition, in data set [2], the IC50 is 3.16 to 10 nM.

For `CCc1cc(O)ccc1-c1ccc2c(-c3nc(C4=CC(C)NC4)c[nH]3)n[nH]c2c1` (centres unmarked) [Example 238], the Ki at JAK2 was 0.1 to 1 nM; at JAK3 it was 0.1 to 1 nM; at JAK1 it was 0.1 to 1 nM; at TYK2, 10 to 100 nM. In addition, in data set [2], the IC50 is 3.16 to 10 nM.

`CCc1cc(O)ccc1-c1ccc2c(-c3nc(C4=CC(C)NC4)c[nH]3)n[nH]c2c1F` (centres unmarked) [Example 244]: the Ki is 0.1 to 1 nM on JAK2, 0.1 to 1 nM on JAK3, 0.1 to 1 nM on JAK1 and 1 to 10 nM on TYK2. The IC50 in data set [2] was 3.16 to 10 nM.

As to `CCc1cc(O)ccc1-c1ccc2c(-c3nc(C4=C[C@@H](CO)NC4)c[nH]3)n[nH]c2c1F` [Example 245], the Ki on JAK2 is 0.1 to 1 nM; on JAK3 it was 0.1 to 1 nM; at JAK1 it was 0.1 to 1 nM; at TYK2, 10 to 100 nM. Moreover, in data set [2], the IC50 was 31.6 to 100 nM.

Turning to `CCc1cc(O)ccc1-c1ccc2c(-c3nc(C4=C(C)CNC4)c[nH]3)n[nH]c2c1F` [Example 293], the Ki at JAK2, on JAK3, on JAK1 and at TYK2 was 0.1 to 1 nM in each case. In addition, the IC50 in data set [2] is 3.16 to 10 nM.

As to `CCc1cc(O)ccc1-c1ccc2c(-c3nc(C4=CCNCC4C)c[nH]3)n[nH]c2c1` (centres unmarked) [Example 298], the Ki on JAK2, at JAK3, at JAK1 and on TYK2 was 0.1 to 1 nM in each case. In data set [2], the IC50 was 10 to 31.6 nM.

`CCc1cc(O)ccc1-c1ccc2c(-c3nc(C4=C[C@H](C)NCC4)c[nH]3)n[nH]c2c1F` [Example 299]: the Ki on JAK2, at JAK3, on JAK1 and on TYK2 was 0.1 to 1 nM in each case. Further, in data set [2], the IC50 is 10 to 31.6 nM.

Turning to `CCOC(=O)C1CC=C(c2c[nH]c(-c3n[nH]c4c(F)c(-c5ccc(O)cc5CC)ccc34)n2)CN1` (centres unmarked) [Example 300], the Ki on JAK2 was 0.1 to 1 nM; at JAK3 it was 0.1 to 1 nM; on JAK1, 0.1 to 1 nM; on TYK2 it was 1 to 10 nM. For the same molecule, in data set [2], the IC50 is 10 to 31.6 nM.

Take `CCc1cc(O)ccc1-c1ccc2c(-c3nc(C4=CCN([C@H]5CC[C@@H](O)CC5)C4)c[nH]3)n[nH]c2c1F` [Example 305]: the “JAK2 pKi” value at JAK2 is “A (A represents a pKi value ≥10 (Ki≤0.1 nM))”. In addition, the Ki on JAK3, at JAK1 and at TYK2 was 0.1 to 1 nM throughout. For the same molecule, the “BEAS2B pIC50” value in data set [2] was “B (B represents a pIC50 value between 7.5 (included) and 8)”.

With `CCOC[C@H]1C=C(c2c[nH]c(-c3n[nH]c4c(F)c(-c5ccc(O)cc5CC)ccc34)n2)CN1` [Example 307], the Ki on JAK2 is 0.1 to 1 nM; at JAK3 it was 0.1 to 1 nM; on JAK1, 0.1 to 1 nM; on TYK2, 1 to 10 nM. In addition, in data set [2], the IC50 was 10 to 31.6 nM.

Take `CCc1cc(O)ccc1-c1ccc2c(-c3nc(C4=CC(CC)NC4)c[nH]3)n[nH]c2c1F` (centres unmarked) [Example 321]: the Ki was 0.1 to 1 nM at JAK2, 0.1 to 1 nM on JAK3, 0.1 to 1 nM at JAK1 and 1 to 10 nM on TYK2. The IC50 in data set [2] is 10 to 31.6 nM.

With `CCc1cc(O)ccc1-c1ccc2c(-c3nc(C4=CCN(C[C@@H]5CCN5)CC4)c[nH]3)n[nH]c2c1F` [Example 390], at JAK2, the “JAK2 pKi” value was “A (A represents a pKi value ≥10 (Ki≤0.1 nM))”. In addition, the Ki was 0.1 to 1 nM on JAK3, 0.1 to 1 nM on JAK1 and 1 to 10 nM at TYK2. Further, the IC50 in data set [2] is 100 to 316 nM.
